Here are results for 25 compounds from PubChem BioAssay (NCI).

Common to all, as to assay: NCI-60 cell line screen, 48 h
In assay [1] the test system is 786-0 renal.
Assay [2] deals with ACHN renal.
In assay [3] the test system is BT-549 breast.
Assay [4] relates to HL-60(TB) leukemia.
Assay [5] deals with IGROV1 ovarian.
For assay [6], the system named is MDA-N.
For assay [7], the system named is SF-539 CNS.
Assay [8] has as its system SK-MEL-28 melanoma.
Assay [9] concerns T-47D breast.
The subject of assay [10] is TK-10 renal.
In assay [11] the test system is UACC-62 melanoma.
Assay [12] deals with LOX IMVI melanoma.

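Step 1: Grow cells in 96-well plates. Step 2: Expose to compound for 48 hours at 5 concentrations. Step 3: Interpolate endpoints linearly; if unreached, use highest concentration. TGI marks complete inhibition of growth.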 Where a SMILES comes first, the peptide text is derived from it. The star is where a group is joined. Boc = CC(C)(C)OC(=O)*; OSu = O=C1CCC(=O)N1O*

For the compound `Cc1cn(C2CC(N)C(CN)O2)c(=O)[nH]c1=O` (stereo unspecified), the TGI in assay [1], in assay [2], in [3], in [4], in [5] and in assay [6] was greater than 100 µM in each case. In addition, the TGI in assay [7], in [8], in [9], in [10] and in [11] was greater than 100 µM each time.

Take `CC(=O)NC1C(OCc2ccccc2)OC(CO)C(O)C1OCC(=O)N[C@@H](C)C(=O)N[C@H](CCC(=O)NCCNCCNc1c2ccccc2nc2cccc([N+](=O)[O-])c12)C(N)=O` (stereo partly specified): the TGI is 99.4 µM in assay [1]; 79.6 µM in assay [2]; greater than 100 µM in assay [4]; 32.7 µM in assay [5]; 61.9 µM in [12]; greater than 100 µM in assay [6]. Further, the TGI was greater than 100 µM in [7]; greater than 100 µM in assay [8]; greater than 100 µM in [9]; greater than 100 µM in assay [10]; 35.2 µM in assay [11].

As to `Cc1sc2nc3n(c(=O)c2c1C)N=CN(c1ccccc1)C3`, the TGI is 46.5 µM in assay [1]; greater than 100 µM in [2]; greater than 100 µM in [3]; greater than 100 µM in assay [5]; greater than 100 µM in assay [12]; greater than 100 µM in assay [6]. Besides, the TGI in [8], in assay [9], in assay [10] and in [11] was greater than 100 µM throughout.

With `O=C1CC(O)c2c1csc2Br` (stereo unspecified), the TGI in [1] was 51.1 µM; in [2], 45.4 µM; in [3], 52.9 µM; in assay [5], 35.9 µM; in assay [12], 36.1 µM; in [6], 83.4 µM. For the same compound, the TGI in assay [8] was 45.1 µM; in assay [9] it was greater than 100 µM; in assay [10], 38.2 µM; in assay [11] it was 59 µM.

On to `CCOc1ccc(N/C(=C(/C(Cl)=C(/Cl)NCCN)[N+](=O)[O-])n2nnc3ccccc32)cc1`, for which the TGI was greater than 100 µM in assay [1]; 43.8 µM in assay [2]; greater than 100 µM in assay [3]; greater than 100 µM in assay [6]; 41.9 µM in [7]; greater than 100 µM in assay [8]. Further, the TGI in [9] and in assay [11] was greater than 100 µM throughout.

For `CCOC(=O)c1sc2nc(SC)nc3c2c1N=CN3c1ccc(Br)cc1`, the TGI in assay [1], in [2], in assay [3], in assay [4], in assay [5] and in [12] was greater than 100 µM throughout. Besides, the TGI in [6], in assay [8], in assay [9], in [10] and in assay [11] was greater than 100 µM each time.

Take `O=C1CC2C=CC(O)C(C1)C2` (stereo unspecified): the TGI in assay [1], in assay [2], in assay [4], in assay [5], in assay [12] and in assay [6] was greater than 100 µM in each case. The TGI in assay [7], in assay [8], in assay [9], in assay [10] and in assay [11] was greater than 100 µM in each case.

`CC(C)(C)OC(=O)NC(Cc1ccc(O)cc1)C(=O)NC(CCCCN)C(=O)NC(Cc1ccc(O)cc1)C(=O)NC(CCCCN)C(=O)ON1C(=O)CCC1=O` (stereo unspecified) (Boc-YKYK-OSu; configuration not given here): the TGI in assay [1], in assay [2], in assay [3], in assay [4], in assay [5] and in assay [6] was greater than 100 µM each time. In addition, the TGI in [8], in [9], in [10] and in assay [11] was greater than 100 µM in each case.

Take `CCN(CC)CCOC(c1cc(OC)ccc1OC)c1ccc2n1-c1ccccc1OC2` (stereo unspecified): the TGI in assay [1] stood at 36.9 µM; in assay [2], 26.7 µM; in [3], 25.2 µM; in assay [4], 30.4 µM; in assay [5] it was 19.7 µM; in assay [12] it was 23.6 µM. Also, the TGI came out at 26.5 µM in assay [6]; 29 µM in assay [8]; 51.3 µM in assay [9]; 25.4 µM in assay [10]; 7.75 µM in assay [11].

With `CC1C(c2cc(C(C)(C)C)c(O)c(C(C)(C)C)c2)c2cc3c(cc2OC1N1CCOCC1)OCO3` (stereo unspecified), the TGI in assay [1] was 27.1 µM; in assay [2] it was 22.7 µM; in [5], greater than 100 µM; in assay [12] it was 44.7 µM; in assay [6], greater than 100 µM; in [7], 43.7 µM. Also, the TGI in [8] was 40.5 µM; in [9], greater than 100 µM; in [10] it was 31.2 µM; in assay [11], 72.9 µM.

Consider `Cc1cc2c(c(C(=O)NCCC(=O)O)c1)Oc1c(cc(C)cc1C(=O)NCCC(=O)O)S2`, for which the TGI in [1], in [2], in [3], in assay [5], in assay [12] and in assay [6] was greater than 100 µM each time. For the same compound, the TGI in [7], in [8], in assay [9], in [10] and in assay [11] was greater than 100 µM each time.

For the compound `CCOP(=O)(OCC)[C@H](O)c1ccsc1`, the TGI in assay [1], in assay [2], in [3], in assay [5], in [12] and in assay [6] was greater than 100 µM in each case. For the same compound, the TGI in assay [7], in assay [8], in [9], in assay [10] and in assay [11] was greater than 100 µM each time.

On to `Cc1ccc(S(=O)(=O)N2CCN3C(=O)c4ccccc4C32c2ccc(F)cc2)cc1` (stereo unspecified), for which the TGI in assay [1], in assay [2], in assay [3], in assay [5], in [6] and in assay [8] was greater than 100 µM in each case. Also, the TGI in [9], in [10] and in assay [11] was greater than 100 µM throughout.

As for `C[C@]12OC[C@H](c3ccccc3)N1C(=O)C1[C@H]2CC12SCCS2` (stereo partly specified), the TGI in [1], in assay [2], in [3], in assay [5], in [6] and in assay [7] was greater than 100 µM throughout. Besides, the TGI in [8], in assay [9], in [10] and in assay [11] was greater than 100 µM each time.

In the case of `COC(=O)C1=C(C(=O)OC)C2OC1C1C2C2(C)C(C)=C(C)C1(C)S2=O` (stereo unspecified), the TGI in assay [1] is 20.2 µM; in assay [2], 12.9 µM; in assay [3] it was 25.1 µM; in [5] it was 39.3 µM; in assay [12], greater than 100 µM; in assay [6], greater than 50.3 µM. Also, the TGI in assay [7] is greater than 100 µM; in assay [8], 33.8 µM; in assay [9], 22.2 µM; in assay [10], 29.8 µM; in assay [11], 26.1 µM.

With `CCOC(=O)CCC(NC(=O)c1ccc(OCc2nc3cc(C(F)(F)F)ccc3nc2-c2ccccc2)cc1)C(=O)OCC` (stereo unspecified), the TGI in [1], in assay [2], in [3], in assay [4], in [5] and in assay [12] was greater than 100 µM in each case. The TGI in [6], in assay [7], in assay [8], in [9] and in assay [11] was greater than 100 µM throughout.

Regarding `CC(C)(C)C(=O)C(CC(=O)c1ccccc1)C(=O)C(C)(C)C`, the TGI in assay [1], in assay [2], in [4], in assay [5], in assay [12] and in assay [6] was greater than 100 µM in each case. Also, the TGI in assay [7], in assay [8], in assay [9] and in assay [10] was greater than 100 µM throughout.

On to `Cc1ccc(-c2cc(N)n(-c3nc4c([nH]3)c(=O)n(C)c(=O)n4C)n2)cc1`, for which the TGI in [1] is 13.6 µM; in [2], 10.7 µM; in assay [3], 32.9 µM; in assay [4], greater than 100 µM; in assay [5] it was 18.3 µM; in assay [6], greater than 100 µM. Besides, the TGI is 16 µM in assay [7]; 94.8 µM in [8]; 23.6 µM in [9]; 26.4 µM in assay [10]; 22.7 µM in assay [11].

Regarding `Cc1ccc2c(c1C)CC1(Cc3c(ccc4c3CCC4)C1=O)C2=O` (stereo unspecified), the TGI in assay [1], in assay [2], in [3], in assay [4], in assay [5] and in assay [6] was greater than 100 µM throughout. For the same compound, the TGI in assay [7], in assay [8], in assay [9], in assay [10] and in assay [11] was greater than 100 µM throughout.

Turning to `O=c1c2c3ccccc3[nH]c2c2cccc3c2n1CCC3`, the TGI in [1] is greater than 100 µM; in [2], greater than 100 µM; in assay [3] it was 91 µM; in assay [5], greater than 100 µM; in assay [6] it was greater than 100 µM; in assay [7], greater than 100 µM. In addition, the TGI in [8], in assay [9], in assay [10] and in [11] was greater than 100 µM throughout.

As for `[N-]=[N+]=Nc1c(Cl)c(=O)n(-c2ccccc2)c2ccccc12`, the TGI in [1] is 38.6 µM; in assay [2], 49.2 µM; in assay [3] it was 39.2 µM; in assay [4], greater than 100 µM; in assay [5] it was 30.5 µM; in assay [12], 29.5 µM. Also, the TGI in assay [6] stood at 52.9 µM; in [7], 42.3 µM; in assay [8], 32.1 µM; in [9] it was 28.9 µM; in [11] it was 29.4 µM.

As for `Cc1cc(-c2nc3ccccc3s2)ccc1NS(=O)(=O)O`, the TGI in assay [1] was greater than 100 µM; in [2], greater than 100 µM; in [3] it was greater than 100 µM; in [5], greater than 100 µM; in assay [12] it was greater than 51.2 µM; in [6], greater than 100 µM. The TGI in assay [7], in assay [8], in [9], in assay [10] and in assay [11] was greater than 100 µM throughout.

Consider `COc1ccc2c(c1)c1c(n2CCN2CCOCC2)-c2ccccc2CC1`, for which the TGI was 92.1 µM in assay [1]; greater than 100 µM in [2]; greater than 100 µM in [3]; greater than 100 µM in assay [5]; greater than 100 µM in assay [6]; 71.3 µM in assay [7]. The TGI in [8], in [9], in assay [10] and in assay [11] was greater than 100 µM each time.

Turning to `c1cc2nnc1SCCSCCSc1ccc(nn1)SCCSCCS2`, the TGI in assay [1], in [2], in [4], in assay [5], in assay [12] and in assay [6] was greater than 100 µM in each case. For the same compound, the TGI is 96.8 µM in [7]; greater than 100 µM in assay [8]; greater than 100 µM in [9]; greater than 100 µM in assay [10]; greater than 100 µM in assay [11].

As for `CO[C@@H](C(=O)OC1C=CC2(CC1)C(=O)N(C)c1ccccc12)c1ccccc1` (stereo partly specified), the TGI in [1] was greater than 100 µM; in assay [2], greater than 100 µM; in [4], 94 µM; in assay [5], greater than 100 µM; in assay [12], greater than 100 µM; in assay [6], greater than 100 µM. The TGI in assay [8], in assay [9], in [10] and in [11] was greater than 100 µM each time.
